What follows are molecules tested on T1, GCaMP5-expressing T. gondii. Settings: 100 uM zaprinast stimulation, 10 min pretreatment, mean of two replicates, 0.23 h, 10 µM.
T1 construct: whole extracellular parasites expressing GCaMP5 Ca2+ sensor
Design: species or system GCaMP5-expressing Toxoplasma gondii, extracellular; GCaMP5 fluorescence (cytosolic Ca2+) after 100 uM zaprinast in compound-pretreated extracellular parasites, background-subtracted, relative to zaprinast alone
Procedure, shortened: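 Extracellular GCaMP5-expressing parasites in Ringer's solution were pretreated with compounds (single 10 μM dose, two biological replicates) for 10 min, then stimulated with 100 μM zaprinast at 37 °C for 4 min. Fluorescence read at 485/525 nm, basal subtracted, expressed as fold change relative to zaprinast-only parasites.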

For Nc1ncnc2occ(-c3ccc(NC(=O)Nc4cc(C(F)(F)F)ccc4F)cc3)c12 [GW770249A], the “fold change in fluorescence relative to zaprinast alone” value was 0.2788.

Same assay, conditions: 100 uM zaprinast stimulation; 10 min pretreatment; mean of two replicates; 0.23 h

Compared with C#Cc1cccc(Nc2ncnc3ccc(OCCCCNCCS(C)(=O)=O)cc23)c1 [GW680191X], CC(=O)Nc1cccc(C#Cc2cncnc2Nc2ccc(OCc3cccc(F)c3)c(Cl)c2)c1 [GW703087X] is higher in “fold change in fluorescence relative to zaprinast alone” value: 1.038 for the first, 1.104 for the second.

Going from COc1cccc(-c2cc(-c3cn[nH]c3-c3ccccn3)ccn2)c1 [GW680338X] to Clc1ccc(-c2cc(-c3cn[nH]c3-c3ccccn3)ccn2)cc1 [GW681251X], the “fold change in fluorescence relative to zaprinast alone” value rises from 0.8974 to 1.448.

Going from COC(=O)Nc1nc2ccc(Oc3ccc(CC(=O)Nc4cc(C(F)(F)F)ccc4F)cc3)cc2[nH]1 [GW680903X] to COC(=O)Nc1nc2ccc(Oc3ccc(NC(=O)Nc4cc(C(F)(F)F)ccc4Cl)cc3)cc2[nH]1 [GW697465A], the “fold change in fluorescence relative to zaprinast alone” value falls from 1.756 to 0.849.

Compared with COC(=O)Nc1nc2ccc(S(=O)(=O)c3ccc(NC(=O)Nc4cc(C(F)(F)F)ccc4F)cc3)cc2[nH]1 [GW680908A], COC(=O)Nc1nc2ccc(Oc3ccc(NC(=O)Nc4cc(C(F)(F)F)ccc4F)cn3)cc2[nH]1 [GW681170A] is higher in “fold change in fluorescence relative to zaprinast alone” value: 1.018 for the first, 1.637 for the second.

First: Fc1ccc(-c2cc(-c3c[nH]nc3-c3ccccn3)ccn2)cc1 [GW680975X]
Second: CC(C)c1ccc(-c2cc(-c3c[nH]nc3-c3ccccn3)ccn2)cc1 [GW682841X]
The “fold change in fluorescence relative to zaprinast alone” value of the first is lower: 1.061 for the first, 1.973 for the second.

Going from Cc1[nH]nc2cc(Nc3ccnc(Nc4cccc(CN5CCOCC5)c4)n3)ccc12 [GW682569X] to c1ccc(-c2[nH]ncc2-c2ccnc(-c3ccc(CN4CCOCC4)cc3)c2)nc1 [GW776245A], the “fold change in fluorescence relative to zaprinast alone” value falls from 1.452 to 1.036.

Compared with O=C(Nc1ccc(Oc2ccc3[nH]c(NC(=O)c4ccco4)nc3c2)cc1)Nc1cc(C(F)(F)F)ccc1F [GW683134A], O=C(Nc1ccc(Oc2ccc3[nH]c(NC(=O)c4ccccc4)nc3c2)cc1)Nc1cc(C(F)(F)F)ccc1F [GW709042A] is higher in “fold change in fluorescence relative to zaprinast alone” value: 1.019 for the first, 1.07 for the second.

Compared with Nc1nc(-c2cccnc2)c(-c2ccnc3ccccc23)s1 [GW684083X], Nc1nc(-c2nccs2)c(-c2ccnc3ccccc23)s1 [GW693542X] is lower in “fold change in fluorescence relative to zaprinast alone” value: 0.9409 for the first, 0.8815 for the second.

Going from CCCCc1nn2ncccc2c1-c1ccnc(NC2CC2)n1 [GW684374X] to CCCCc1nn2ncccc2c1-c1ccnc(Nc2ccc(N3CCN(C)CC3)cc2)n1 [GW684941X], the “fold change in fluorescence relative to zaprinast alone” value falls from 0.8894 to 0.4893.

Compared with Fc1cccc(COc2ccc(Nc3ncnc4sc(-c5cccs5)cc34)cc2Cl)c1 [GW684626B], Fc1cccc(COc2ccc(Nc3ncnc4sc(-c5ccc[nH]5)cc34)cc2Cl)c1 [GW707818B] is lower in “fold change in fluorescence relative to zaprinast alone” value: 0.9792 for the first, 0.2741 for the second.

First: COC(=O)Nc1nc2ccc(Oc3ccc(NC(=O)Nc4cc(C(F)(F)F)ccc4F)cc3)cc2n1C [GW692089A]
Second: COC(=O)Nc1nc2ccc(Oc3ccc(NC(=O)Nc4cc(F)ccc4F)cc3)cc2[nH]1 [GW701424A]
The “fold change in fluorescence relative to zaprinast alone” value of the first is higher: 1.505 for the first, 1.084 for the second.

Compared with N#Cc1ccc(-c2cc(-c3cn[nH]c3-c3ccccn3)ccn2)cc1 [GW693028X], c1ccc(-c2[nH]ncc2-c2ccnc(-c3ccc(CNC4CCOCC4)cc3)c2)nc1 [GW709213X] is lower in “fold change in fluorescence relative to zaprinast alone” value: 1.123 for the first, 1.08 for the second.

Compared with Nc1nc(-c2ccccn2)c(-c2ccc3ncccc3n2)s1 [GW693481X], Cc1ccnc2ccc(-c3sc(N)nc3-c3ccccn3)nc12 [GW777257X] is lower in “fold change in fluorescence relative to zaprinast alone” value: 1.166 for the first, 1.011 for the second.

Compared with c1ccc(-c2[nH]ncc2Nc2ccnc3ccccc23)nc1 [GW694077X], NC(=O)c1cccc(Nc2nccc(Nc3cccc4[nH]ncc34)n2)c1 [GW782612X] is lower in “fold change in fluorescence relative to zaprinast alone” value: 1.237 for the first, 1.061 for the second.

Compared with COC(=O)Nc1nc2cc(Oc3ccc(NC(=O)Nc4cccc(Br)c4)cc3)ccc2[nH]1 [GW694234A], COC(=O)Nc1nc2cc(Oc3ccc(NC(=O)Nc4cccc(C(=O)O)c4)cc3)ccc2[nH]1 [GW701427A] is higher in “fold change in fluorescence relative to zaprinast alone” value: 0.8976 for the first, 1.188 for the second.

Going from COC(=O)Nc1nc2cc(Oc3ccc(NC(=O)Nc4ccccc4)cc3)ccc2[nH]1 [GW694590A] to COC(=O)Nc1nc2ccc(Oc3ccc(NC(=O)Nc4cccc(SC)c4)cc3)cc2[nH]1 [GW697999A], the “fold change in fluorescence relative to zaprinast alone” value rises from 1.127 to 1.427.

First: c1ccc(-c2n[nH]cc2-c2ccnc(-c3ccc(OCCN4CCOCC4)cc3)c2)nc1 [GW695874X]
Second: c1ccc(-c2n[nH]cc2-c2ccnc(-c3ccc(OCCn4ccnc4)cc3)c2)nc1 [GW711782X]
The “fold change in fluorescence relative to zaprinast alone” value of the first is lower: 1.104 for the first, 1.163 for the second.

Compared with CC(C)Oc1ccc2c(-c3ccnc(Nc4ccc(N5CCN(C)CC5)cc4)n3)cnn2n1 [GW696155X], CN(C)CC(O)COc1ccc(Nc2nccc(-c3cnn4nc(N5CCOCC5)ccc34)n2)cc1 (centres unmarked) [GW767488X] is higher in “fold change in fluorescence relative to zaprinast alone” value: 0.6015 for the first, 0.9765 for the second.

First: COc1ccc(CNC(=O)c2ccc(-c3cc(-c4nnc(C)o4)ccc3C)cc2)cc1 [GW701032X]
Second: Cc1nnc(-c2ccc(C)c(-c3ccc(C(=O)NCc4ccc(Cl)cc4)cc3)c2)o1 [GW708893X]
The “fold change in fluorescence relative to zaprinast alone” value of the first is higher: 1.056 for the first, 1.038 for the second.

Going from Cc1nnc(-c2ccc(C)c(-c3ccc(C(=O)Nc4ccc(NS(C)(=O)=O)cc4)cc3)c2)o1 [GW702865X] to Cc1ccc(NC(=O)c2ccoc2)cc1-c1ccc(C(=O)NCC2CC2)cc1 [GW743024X], the “fold change in fluorescence relative to zaprinast alone” value falls from 1.258 to 1.222.

First: c1cc(-c2cnn3nc(N4CCOCC4)ccc23)nc(NC2CC2)n1 [GW708336X]
Second: N#Cc1cccc(Nc2nccc(-c3cnn4ncccc34)n2)c1 [GW778894X]
The “fold change in fluorescence relative to zaprinast alone” value of the first is higher: 0.6756 for the first, 0.1658 for the second.

Compared with FC(F)(F)c1ccc(/C=C/c2cncnc2Nc2ccc3nc(Cc4ccccc4)[nH]c3c2)cc1 [GW709199X], Cc1c2ccc(N(C)c3ccnc(Nc4cccc(S(N)(=O)=O)c4)n3)cc2nn1Cc1ccccc1 [GW787226A] is higher in “fold change in fluorescence relative to zaprinast alone” value: 1.132 for the first, 1.348 for the second.

Compared with NC(=O)c1cccc(Nc2nccc(Nc3cccc(F)c3)n2)c1 [GW759710A], COc1ccc(C)c(Nc2ccnc(Nc3ccc(-c4cnc[nH]4)cc3)n2)c1 [GW784041A] is lower in “fold change in fluorescence relative to zaprinast alone” value: 1.166 for the first, 1.009 for the second.

Going from CN1CCN(CCNc2nc3ccc(Oc4ccc(NC(=O)Nc5cc(C(F)(F)F)ccc5F)cc4)cc3[nH]2)CC1 [GW768504A] to Cc1ccc(NC(=O)c2ccnc(N3CCN(C)CC3)c2)cc1-c1ccc(C(=O)NCC2CC2)cc1 [GW775604X], the “fold change in fluorescence relative to zaprinast alone” value rises from 0.9512 to 1.197.

Going from Cc1ccc(NC(=O)c2ccnc(N3CCCC3)c2)cc1-c1ccc(C(=O)NCC2CC2)cc1 [GW769076X] to Cc1ccc(NC(=O)c2ccnc(N3CCCCC3)c2)cc1-c1ccc(C(=O)NCC2CC2)cc1 [GW775610X], the “fold change in fluorescence relative to zaprinast alone” value rises from 1.128 to 1.448.

Compared with Cc1c2ccc(N(C)c3ccnc(Nc4cccc(S(N)(=O)=O)c4)n3)cc2nn1C [GW771127A], COc1cc(Nc2nccc(-c3cnn4ncccc34)n2)cc(OC)c1 [GW801372X] is lower in “fold change in fluorescence relative to zaprinast alone” value: 1.211 for the first, 0.4013 for the second.

Going from CCN(CC)Cc1ccc(Nc2nccc(-c3cnn4ncccc34)n2)cc1 [GW780056X] to Clc1ccc(CNc2nccc(-c3cnn4ncccc34)n2)cc1 [GW781673X], the “fold change in fluorescence relative to zaprinast alone” value falls from 0.8961 to 0.7156.

Compared with C=CC(=O)Nc1cc2c(Nc3ccc(F)c(Cl)c3)ncnc2cc1OCCCN1CCOCC1 [GW781483X], Nc1nccc(C#Cc2cncnc2Nc2ccc(OCc3cccc(F)c3)c(Cl)c2)n1 [GW799251X] is lower in “fold change in fluorescence relative to zaprinast alone” value: 1.29 for the first, 1.079 for the second.

Compared with Cc1ccc(C(=O)NC2CCCCC2)cc1-c1ccc(C(=O)NCC2CC2)cc1 [GW782907X], Cc1ccc(C(=O)NC2CCCC2)cc1-c1ccc(C(=O)NCC2CC2)cc1 [GW800172X] is lower in “fold change in fluorescence relative to zaprinast alone” value: 1.25 for the first, 1.109 for the second.

Compared with Cc1ccc(C(=O)NC2CCC2)cc1-c1ccc(C(=O)NCC2CC2)cc1 [GW782912X], Cc1ccc(C(=O)NC(C)C)cc1-c1ccc(C(=O)NCC2CC2)cc1 [GW785974X] is higher in “fold change in fluorescence relative to zaprinast alone” value: 1.104 for the first, 1.119 for the second.

Going from COc1cccc(-n2ncc3c(N/N=C/c4ccc(C(=O)NCCN(C)C)cc4)ncnc32)c1 [GW784307A] to COc1cccc(-n2ncc3c(N/N=C/c4ccncc4)ncnc32)c1 [GW784752X], the “fold change in fluorescence relative to zaprinast alone” value rises from 0.4737 to 1.109.

First: Nc1nc(-c2ccc(F)cc2)c(-c2ccc3ncccc3n2)s1 [GW785804X]
Second: Cc1cccc(-c2n[nH]cc2-c2ccc3ncccc3n2)n1 [GW786460X]
The “fold change in fluorescence relative to zaprinast alone” value of the first is higher: 1.356 for the first, 1.226 for the second.

Compared with CCCNc1cccc(-n2ncc3c(N/N=C/c4ccncc4)ncnc32)c1 [GW794607X], Nc1ncnc2occ(-c3ccc(NC(=O)Nc4cc(C(F)(F)F)cc(C(F)(F)F)c4)cc3)c12 [GW795486X] is lower in “fold change in fluorescence relative to zaprinast alone” value: 0.688 for the first, 0.08819 for the second.

For Cc1ccc(NC(=O)CC2CC2)cc1-c1ccc(C(=O)NCC2CC2)cc1 [GW796920X], the “fold change in fluorescence relative to zaprinast alone” value was 1.231.

Source: paper PMC4850295, “Using a Genetically Encoded Sensor to Identify Inhibitors of Toxoplasma gondii Ca^2+ Signaling” (The Journal of Biological Chemistry, 2016)
